Assay results reported in PubChem BioAssay (NCI).
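Where inhibition never reached the appropriate level, the endpoint shown equals the highest concentration tested. Otherwise, values were interpolated linearly from a five-concentration, 48-hour dose response in 96-well plates. TGI is the concentration that stops growth completely.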

Columns and labels:
Experiment in all cases: NCI tumour cell line growth inhibition, 48 h
[1] = system: SK-MEL-2 melanoma
[2] = system: MDA-MB-435
[3] = system: SK-MEL-5 melanoma
[4] = system: LOX IMVI melanoma
[5] = system: HS 578T breast

O[C@@H]1C=C[C@]23CCN(Cc4cc5c(cc42)OCO5)[C@@H]3C1
TGI [1]: > 100 µM
TGI [2]: > 100 µM
TGI [3]: > 100 µM
TGI [4]: > 100 µM
TGI [5]: > 100 µM

Nc1cc2c(c3ccccc13)C(CCl)CN2C(=O)c1cc2cc(NC(=O)Nc3ccc4[nH]c(C(=O)N5CC(CCl)c6c5cc(N)c5ccccc65)cc4c3)ccc2[nH]1 (stereo not given)
TGI [1]: 2.17 µM
TGI [2]: 4.33 µM
TGI [3]: 0.341 µM
TGI [4]: 12 µM
TGI [5]: 12.3 µM

Cn1cccc1-c1ccc(-c2ccc(CO)[se]2)[se]1
TGI [1]: > 100 µM
TGI [2]: 18.7 µM
TGI [3]: > 75 µM
TGI [4]: > 70.6 µM
TGI [5]: > 100 µM

Cc1c(C(=O)c2ccc(N)c3ccccc23)c2ccccc2n1CCN1CCOCC1
TGI [1]: 47.2 µM
TGI [2]: 37 µM
TGI [3]: 33.7 µM
TGI [4]: 59 µM
TGI [5]: 48.4 µM

COc1ccccc1-n1c(=O)n(C)c(=O)n1C(C)(C)C
TGI [1]: > 100 µM
TGI [2]: > 100 µM
TGI [3]: > 100 µM
TGI [4]: > 100 µM
TGI [5]: > 100 µM

CC(C)(C)OC(=O)N/C(C=O)=C\C1CCCCC1
TGI [1]: 54.9 µM
TGI [2]: 49.5 µM
TGI [3]: 31.3 µM
TGI [4]: 29.9 µM
TGI [5]: 84.7 µM

CSC(=S)Nc1cc(C)cc(C)n1
TGI [1]: > 31.6 µM
TGI [2]: > 31.6 µM
TGI [3]: > 100 µM
TGI [4]: > 31.6 µM
TGI [5]: > 31.6 µM

C[C@]12CC[C@H]3[C@@H](CCC4=CC(=O)C=C[C@@]43OC(=O)C(F)(F)F)[C@@H]1CCC2=O
TGI [1]: > 100 µM
TGI [2]: > 100 µM
TGI [3]: > 100 µM
TGI [4]: > 100 µM
TGI [5]: > 100 µM

CC1CC[C@@]2(OC1)O[C@H]1[C@H](O)[C@H]3[C@@H]4CC[C@H]5C[C@@H](OC6OC(CO)C(OC7OC(CO)C(O)C(OC8OCC(O)C(O)C8O)C7OC7OC(CO)C(O)C(O)C7OC7OC(CO)C(O)C(O)C7O)C(O)C6O)[C@H](O)C[C@]5(C)[C@H]4CC[C@]3(C)[C@H]1[C@@H]2C (stereo not given in full)
TGI [1]: > 10 µM
TGI [2]: > 10 µM
TGI [3]: > 10 µM
TGI [4]: > 10 µM
TGI [5]: > 10 µM

COc1ccc(C#Cn2nnc3ccccc32)cc1
TGI [1]: > 100 µM
TGI [2]: > 100 µM
TGI [3]: > 100 µM
TGI [4]: > 100 µM
TGI [5]: > 100 µM

N#C/C(=C/C=C/c1ccco1)C(N)=O
TGI [1]: > 10 µM
TGI [2]: > 10 µM
TGI [3]: > 10 µM
TGI [4]: > 10 µM
TGI [5]: > 10 µM

CCc1cccc2c3c([nH]c12)-c1ccccc1NC(=O)C3
TGI [1]: > 100 µM
TGI [2]: > 100 µM
TGI [3]: > 100 µM
TGI [4]: > 100 µM
TGI [5]: > 100 µM

O=C(/C(=C(/O)c1ccccc1)c1nc2ccccc2sc1=O)c1ccccc1
TGI [1]: 76 µM
TGI [2]: > 100 µM
TGI [3]: 54.3 µM
TGI [4]: > 100 µM
TGI [5]: > 100 µM

CC(=O)n1cc(C2CC23N=C(c2ccccc2)OC3=O)c2ccccc21 (stereo not given)
TGI [1]: 44.5 µM
TGI [2]: 72.9 µM
TGI [3]: 40.2 µM
TGI [4]: 35.8 µM
TGI [5]: 68.6 µM
